Reference: ChEMBL document CHEMBL1201862, “PubChem BioAssay data set” (2004)
Calls of active or inactive are those of the source.

Columns and labels:
Streptococcus = assay: Group A Streptococcus viability loss, dose response, counter-screen for streptokinase expression inhibitor project, luminescence, BacTiterGlo (AID 1915); type: functional, organism-based;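 also: potency for reduction of bacterial viability or growth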
Ion channel NompC = Ion channel NompC (Danio rerio, UniProt Q7T1G6); assay: Dose response cell-based high-throughput screening assay for agonists of the transient receptor potential channel N1 (TRPN1). [Related pubchem assays (depositor defined):AID1424, AID1448]; type: functional
Mucolipin-3 = target: T1, Mucolipin-3 (Homo sapiens, UniProt Q8TDD5); assay: Fluorescence counterscreen assay for […] agonists: dose response cell-based high-throughput screening assay to identify agonists of the transient receptor potential channel ML3 (TRPML3). [Related pubchem assays: 1424, 1448 ]; type: functional
T1 sequence (Q8TDD5 whole entry): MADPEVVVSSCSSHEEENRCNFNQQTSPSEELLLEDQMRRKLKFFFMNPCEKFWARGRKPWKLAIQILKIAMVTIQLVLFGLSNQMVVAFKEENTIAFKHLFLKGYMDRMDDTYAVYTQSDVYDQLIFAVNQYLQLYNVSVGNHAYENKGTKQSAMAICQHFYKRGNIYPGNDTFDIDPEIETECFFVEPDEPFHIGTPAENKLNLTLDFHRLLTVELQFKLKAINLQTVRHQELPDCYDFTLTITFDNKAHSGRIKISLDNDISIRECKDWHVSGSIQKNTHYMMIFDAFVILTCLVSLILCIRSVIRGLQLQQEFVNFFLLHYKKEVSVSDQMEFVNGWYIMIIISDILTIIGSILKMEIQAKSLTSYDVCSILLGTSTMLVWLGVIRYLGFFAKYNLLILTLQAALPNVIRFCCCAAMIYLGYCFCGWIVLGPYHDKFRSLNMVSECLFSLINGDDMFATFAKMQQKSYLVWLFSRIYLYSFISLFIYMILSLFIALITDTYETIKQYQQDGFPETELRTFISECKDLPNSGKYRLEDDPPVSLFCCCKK

[1] = Shn3 3'UTR reporter inhibitors, dose response, cell-based, Clone20 osteoblasts, firefly luciferase, cherry-picked (AID 624132); type: functional;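 also: firefly luciferase luminescence from reporter carrying the Shn3 3'UTR in osteoblasts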
[2] = system: Streptococcus sp. 'group A'; assay: growth inhibition of control SK(-) GAS strain, dose response, counter-screen for streptokinase expression inhibitor project, luminescence, kanamycin, BacTiterGlo, confirmation (AID 1900); type: functional, organism-based
[3] = HIV-1 Env-mediated cell fusion inhibitors, dose response, CCR5-tropic Env (AID 2279); type: functional
[4] = HepG2 cell cytotoxicity, dose response, cytotoxicity control for Shn3 inhibitor project, CellTiter-Glo, cherry-picked (AID 624134); type: functional, cell-based
[5] = Luminescence Cell-Based Dose Retest to Confirm Inhibitors of Cancer Stem Cells. [Related pubchem assays (depositor defined):AID2717, AID2721]; type: functional; conditions: Homo sapiens
[6] = control 3'UTR Renilla luciferase suppression, dose response, counter-screen for Shn3 inhibitor project, cell-based, Clone20-Shn3RL, cherry-picked (AID 624133); type: functional
Streptokinase A = target: T2, Streptokinase A (Streptococcus pyogenes serotype M1, UniProt P10520); assay: S. pyogenes streptokinase expression inhibitors, potency, dose response, plasminogen activation absorbance, OD405 (AID 1914); type: functional, Streptococcus pyogenes M1 GAS;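 also: secreted streptokinase activity via plasminogen activation per viability signal from cell pellet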
T2 sequence (P10520 whole entry): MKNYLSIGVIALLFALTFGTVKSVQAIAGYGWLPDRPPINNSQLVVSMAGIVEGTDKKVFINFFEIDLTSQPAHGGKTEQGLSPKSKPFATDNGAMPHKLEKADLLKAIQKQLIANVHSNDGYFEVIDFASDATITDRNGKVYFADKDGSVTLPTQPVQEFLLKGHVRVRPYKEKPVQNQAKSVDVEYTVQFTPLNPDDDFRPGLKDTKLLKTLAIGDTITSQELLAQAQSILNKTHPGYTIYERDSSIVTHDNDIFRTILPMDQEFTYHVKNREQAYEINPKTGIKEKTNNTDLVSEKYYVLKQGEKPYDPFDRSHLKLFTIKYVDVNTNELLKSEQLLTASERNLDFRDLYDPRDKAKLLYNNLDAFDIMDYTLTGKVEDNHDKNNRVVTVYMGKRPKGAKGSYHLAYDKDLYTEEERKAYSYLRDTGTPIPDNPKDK

[7] = target: Eukaryotic translation initiation factor 4E (Mus musculus, UniProt P63073); assay: eIF4E–eIF4G protein interaction inhibitors, dose response, biochemical, TR-FRET (AID 855); type: functional;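 also: potency for disrupting eIF4E binding to eIF4GI seen as loss of FRET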
[8] = target: T3, Carboxy-terminal domain RNA polymerase II polypeptide A small phosphatase 1 (Homo sapiens, UniProt Q9GZU7); assay: inhibitors of CTDSP1, concentration-response testing, biochemical assay, absorbance-based, actives from ultra-high-throughput screening (AID 540297); type: functional
T3 sequence (Q9GZU7 whole entry): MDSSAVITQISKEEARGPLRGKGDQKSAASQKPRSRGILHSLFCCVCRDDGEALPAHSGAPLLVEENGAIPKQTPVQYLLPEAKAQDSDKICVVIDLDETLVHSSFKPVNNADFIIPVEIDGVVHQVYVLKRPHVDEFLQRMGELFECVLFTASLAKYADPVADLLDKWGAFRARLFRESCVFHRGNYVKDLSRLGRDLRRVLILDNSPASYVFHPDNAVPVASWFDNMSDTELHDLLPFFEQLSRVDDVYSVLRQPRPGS

[9] = target: T4, Ubiquitin-conjugating enzyme E2 N (Homo sapiens, UniProt P61088); type: functional
T4 sequence (P61088 whole entry): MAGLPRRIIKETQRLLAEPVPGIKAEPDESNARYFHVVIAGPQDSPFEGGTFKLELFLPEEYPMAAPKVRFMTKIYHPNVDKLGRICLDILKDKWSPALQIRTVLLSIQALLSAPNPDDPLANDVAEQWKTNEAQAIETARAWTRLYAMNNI

[10] = target: T4, Ubiquitin-conjugating enzyme E2 N; type: functional; remark: listed apart in the source
Bcl-2-related protein A1 = target: T5, Bcl-2-related protein A1 (Mus musculus, UniProt Q07440); type: functional;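 also: confirmatory dose–response counterscreen on Bfl-1, used to check hits from a UBC13 polyubiquitin inhibitor campaign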
T5 sequence (Q07440 whole entry): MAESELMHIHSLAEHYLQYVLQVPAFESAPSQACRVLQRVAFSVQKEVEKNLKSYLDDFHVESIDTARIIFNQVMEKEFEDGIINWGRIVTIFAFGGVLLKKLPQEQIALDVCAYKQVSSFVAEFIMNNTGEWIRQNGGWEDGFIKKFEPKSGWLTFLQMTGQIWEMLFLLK

[11] = target: T6, Alkaline phosphatase, tissue-nonspecific isozyme (Homo sapiens, UniProt P05186); assay: human TNAP enzyme inhibitors, SAR follow-up, biochemical, luminescent, dose response (AID 1056)
T6 sequence (P05186 whole entry): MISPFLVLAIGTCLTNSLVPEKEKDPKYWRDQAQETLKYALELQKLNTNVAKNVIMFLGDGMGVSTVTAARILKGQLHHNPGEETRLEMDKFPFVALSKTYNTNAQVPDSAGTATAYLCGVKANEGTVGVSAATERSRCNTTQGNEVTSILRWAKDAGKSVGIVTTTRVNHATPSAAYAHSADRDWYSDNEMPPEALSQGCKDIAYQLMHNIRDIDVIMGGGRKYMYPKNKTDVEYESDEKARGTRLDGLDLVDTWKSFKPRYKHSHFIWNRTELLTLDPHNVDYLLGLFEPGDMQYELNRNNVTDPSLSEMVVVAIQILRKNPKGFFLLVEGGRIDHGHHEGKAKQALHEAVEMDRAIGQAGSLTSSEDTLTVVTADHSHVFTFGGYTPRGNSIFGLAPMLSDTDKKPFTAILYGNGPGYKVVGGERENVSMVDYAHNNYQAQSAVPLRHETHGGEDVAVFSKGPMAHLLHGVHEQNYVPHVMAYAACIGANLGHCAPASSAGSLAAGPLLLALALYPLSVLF

[12] = target: Alkaline phosphatase, placental type (Homo sapiens, UniProt P05187); assay: PLAP enzyme inhibitors, confirmation, biochemical, luminescence (AID 1512); type: functional
[13] = target: Mannose-6-phosphate isomerase (Homo sapiens, UniProt P34949); assay: human PMI inhibitors, high substrate, primary screen, biochemical, fluorescence intensity, high mannose 6-phosphate (AID 1220)
[14] = target: G-protein coupled receptor 55 (Homo sapiens, UniProt Q9Y2T6); assay: GPR55 antagonists blocking LPI-driven arrestin recruitment, primary screen, imaging, U2OS, beta-arrestin-GFP, LPI agonist (AID 2013); type: functional;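 also: antagonist potency measured as reduced agonist-driven arrestin aggregation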
Caspase-3 = target: T7, Caspase-3 (Homo sapiens, UniProt P42574); assay: procaspase-3 activators, dose response, biochemical, absorbance (AID 489014)
T7 sequence (P42574 whole entry): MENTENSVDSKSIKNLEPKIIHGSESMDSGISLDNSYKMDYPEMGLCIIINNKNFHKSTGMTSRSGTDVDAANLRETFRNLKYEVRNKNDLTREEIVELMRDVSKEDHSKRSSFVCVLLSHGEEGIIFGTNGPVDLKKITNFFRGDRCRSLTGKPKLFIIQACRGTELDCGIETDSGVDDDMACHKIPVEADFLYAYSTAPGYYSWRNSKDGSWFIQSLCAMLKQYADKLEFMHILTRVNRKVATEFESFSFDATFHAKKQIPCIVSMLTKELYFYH

Caspase-7 = Caspase-7 (Homo sapiens, UniProt P55210); assay: procaspase-7 activators, dose response, counter-screen for procaspase-3 activator project, biochemical, absorbance (AID 489013)
Troponin, cardiac muscle = Troponin, cardiac muscle (Homo sapiens, UniProt P19429+P45379+P63316); assay: Fluorescence-based biochemical high throughput dose response assay for activators of the calcium sensitivity of cardiac Regulated Thin Filaments (RTF). [Related pubchem assays (depositor defined):AID493008, AID493018, AID504382, AID504383]; type: protein-complex assay
[15] = insulin promoter down-regulators in MIN6 cells, imaging, high-content screening, mouse beta cells (AID 1628); type: functional
cells [16] = type: functional, cell-based
[17] = cytotoxicity in MIN6 insulinoma cells, dose response, cytotoxicity control, cell-based, mouse insulinoma (AID 2122); type: functional;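 also: confirmatory high-throughput counterscreen run to flag cytotoxic compounds; mouse MIN-6 beta cells carrying an insulin promoter eGFP reporter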
cells [18] = type: functional, cell-based; remark: listed apart in the source
[19] = inhibitors of intracellular T. cruzi replication, confirmation, NIH3T3 host cells, beta-gal luminescence (AID 2044); type: functional, cell-based;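 also: intracellular parasites grown in NIH/3T3 mouse fibroblasts as host cells; luminescent beta-galactosidase reporter signal from transgenic T. cruzi replicating inside host cells; inhibitors lower the luminescence signal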
cells [20] = type: functional
[21] = Vero E6 cell cytotoxicity, dose response, cytotoxicity control for non-replicating M. tuberculosis project, secondary assay (AID 492998); type: functional, VeroE6; conditions: Vero C1008
[22] = target: Microphthalmia-associated transcription factor (Homo sapiens, UniProt O75030); assay: TRPM1 promoter luciferase signal decrease, dose response, MITF inhibitor project, cell-based, SK-MEL-5, cherry-picked, set 3 (AID 493073); type: functional
[23] = THP-1 cell cytotoxicity, dose response, cytotoxicity control for non-replicating M. tuberculosis project (AID 489025); type: functional

Eukaryotic translation initiation factor 4E, sequence (P63073 whole entry, the tested form may be a part): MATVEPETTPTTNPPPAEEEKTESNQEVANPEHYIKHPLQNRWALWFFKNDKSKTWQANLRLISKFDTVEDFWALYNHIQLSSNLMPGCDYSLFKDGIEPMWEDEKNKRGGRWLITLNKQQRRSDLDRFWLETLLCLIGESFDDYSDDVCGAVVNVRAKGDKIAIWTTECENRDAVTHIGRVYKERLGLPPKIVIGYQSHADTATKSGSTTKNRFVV
Ion channel NompC, sequence (Q7T1G6 whole entry): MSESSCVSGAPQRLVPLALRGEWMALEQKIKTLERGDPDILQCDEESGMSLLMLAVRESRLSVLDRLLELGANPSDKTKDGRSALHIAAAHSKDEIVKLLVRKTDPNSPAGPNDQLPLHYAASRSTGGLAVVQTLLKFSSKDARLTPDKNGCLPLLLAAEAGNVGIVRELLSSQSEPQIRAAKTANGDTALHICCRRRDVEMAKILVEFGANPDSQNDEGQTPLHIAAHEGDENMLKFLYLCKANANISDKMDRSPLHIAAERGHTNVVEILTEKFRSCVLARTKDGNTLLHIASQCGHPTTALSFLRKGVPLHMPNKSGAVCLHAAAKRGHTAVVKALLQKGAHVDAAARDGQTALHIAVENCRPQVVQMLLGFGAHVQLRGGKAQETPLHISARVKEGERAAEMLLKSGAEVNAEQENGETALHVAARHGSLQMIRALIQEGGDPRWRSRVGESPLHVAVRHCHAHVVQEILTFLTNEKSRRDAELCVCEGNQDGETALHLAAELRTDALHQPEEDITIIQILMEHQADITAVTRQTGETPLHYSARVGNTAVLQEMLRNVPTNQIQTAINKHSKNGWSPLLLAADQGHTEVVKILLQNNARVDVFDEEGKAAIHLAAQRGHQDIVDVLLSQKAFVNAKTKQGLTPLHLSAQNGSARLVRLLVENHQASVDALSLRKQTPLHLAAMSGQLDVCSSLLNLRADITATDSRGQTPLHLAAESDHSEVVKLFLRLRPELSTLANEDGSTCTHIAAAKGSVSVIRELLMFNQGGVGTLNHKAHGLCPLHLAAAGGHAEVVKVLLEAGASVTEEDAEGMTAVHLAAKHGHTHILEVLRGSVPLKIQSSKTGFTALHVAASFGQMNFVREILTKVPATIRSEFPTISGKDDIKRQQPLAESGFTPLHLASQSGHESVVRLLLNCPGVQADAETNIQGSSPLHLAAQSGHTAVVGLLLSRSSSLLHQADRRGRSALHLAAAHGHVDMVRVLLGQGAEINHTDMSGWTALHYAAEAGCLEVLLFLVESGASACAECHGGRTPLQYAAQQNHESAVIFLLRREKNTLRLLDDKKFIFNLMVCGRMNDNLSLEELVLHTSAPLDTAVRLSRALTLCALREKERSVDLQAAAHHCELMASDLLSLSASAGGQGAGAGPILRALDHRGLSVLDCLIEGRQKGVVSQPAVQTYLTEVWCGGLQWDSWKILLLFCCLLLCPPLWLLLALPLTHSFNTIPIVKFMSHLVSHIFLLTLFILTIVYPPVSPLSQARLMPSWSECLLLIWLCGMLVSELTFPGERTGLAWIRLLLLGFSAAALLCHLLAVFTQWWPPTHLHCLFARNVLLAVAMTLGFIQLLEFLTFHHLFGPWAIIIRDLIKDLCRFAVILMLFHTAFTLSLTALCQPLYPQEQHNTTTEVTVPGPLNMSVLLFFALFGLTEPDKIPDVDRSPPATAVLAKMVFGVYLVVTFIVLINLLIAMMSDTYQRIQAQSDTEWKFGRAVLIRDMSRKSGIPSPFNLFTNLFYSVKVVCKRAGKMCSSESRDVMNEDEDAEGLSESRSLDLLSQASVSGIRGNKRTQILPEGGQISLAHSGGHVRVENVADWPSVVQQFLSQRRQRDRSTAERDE
Caspase-7, sequence (P55210 24-198 limits assumed): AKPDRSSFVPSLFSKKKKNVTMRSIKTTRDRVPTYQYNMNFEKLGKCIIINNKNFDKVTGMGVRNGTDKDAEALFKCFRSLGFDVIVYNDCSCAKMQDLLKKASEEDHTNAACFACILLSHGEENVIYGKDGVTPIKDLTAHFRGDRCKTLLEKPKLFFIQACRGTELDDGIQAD
Caspase-7, sequence (P55210 207-303 limits assumed): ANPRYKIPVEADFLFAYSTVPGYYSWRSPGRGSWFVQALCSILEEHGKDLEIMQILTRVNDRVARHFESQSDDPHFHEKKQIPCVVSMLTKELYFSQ
Alkaline phosphatase, placental type, sequence (P05187 whole entry): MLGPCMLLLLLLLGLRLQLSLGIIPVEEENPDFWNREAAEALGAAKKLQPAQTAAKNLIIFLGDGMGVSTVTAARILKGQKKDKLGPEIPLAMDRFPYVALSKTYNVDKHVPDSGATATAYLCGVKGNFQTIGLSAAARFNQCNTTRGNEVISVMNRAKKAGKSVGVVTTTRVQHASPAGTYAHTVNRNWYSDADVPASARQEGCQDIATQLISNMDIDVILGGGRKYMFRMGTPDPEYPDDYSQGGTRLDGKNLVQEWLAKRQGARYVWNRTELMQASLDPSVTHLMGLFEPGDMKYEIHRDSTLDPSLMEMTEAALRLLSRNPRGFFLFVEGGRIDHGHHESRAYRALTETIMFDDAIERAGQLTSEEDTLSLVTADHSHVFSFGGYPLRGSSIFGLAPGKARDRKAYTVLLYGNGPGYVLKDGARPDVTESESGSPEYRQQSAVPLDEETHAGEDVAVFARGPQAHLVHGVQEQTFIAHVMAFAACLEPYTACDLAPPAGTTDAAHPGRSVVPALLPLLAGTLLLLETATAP
G-protein coupled receptor 55, sequence (Q9Y2T6 whole entry): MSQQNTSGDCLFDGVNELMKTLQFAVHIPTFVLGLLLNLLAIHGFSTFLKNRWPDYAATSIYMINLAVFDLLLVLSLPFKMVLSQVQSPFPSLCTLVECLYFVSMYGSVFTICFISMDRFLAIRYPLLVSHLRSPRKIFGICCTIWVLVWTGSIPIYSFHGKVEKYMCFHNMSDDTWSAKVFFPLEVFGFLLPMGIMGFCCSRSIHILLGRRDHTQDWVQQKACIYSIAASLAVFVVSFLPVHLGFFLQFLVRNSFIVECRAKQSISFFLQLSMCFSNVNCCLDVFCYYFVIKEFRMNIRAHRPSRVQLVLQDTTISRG
Mannose-6-phosphate isomerase, sequence (P34949 whole entry): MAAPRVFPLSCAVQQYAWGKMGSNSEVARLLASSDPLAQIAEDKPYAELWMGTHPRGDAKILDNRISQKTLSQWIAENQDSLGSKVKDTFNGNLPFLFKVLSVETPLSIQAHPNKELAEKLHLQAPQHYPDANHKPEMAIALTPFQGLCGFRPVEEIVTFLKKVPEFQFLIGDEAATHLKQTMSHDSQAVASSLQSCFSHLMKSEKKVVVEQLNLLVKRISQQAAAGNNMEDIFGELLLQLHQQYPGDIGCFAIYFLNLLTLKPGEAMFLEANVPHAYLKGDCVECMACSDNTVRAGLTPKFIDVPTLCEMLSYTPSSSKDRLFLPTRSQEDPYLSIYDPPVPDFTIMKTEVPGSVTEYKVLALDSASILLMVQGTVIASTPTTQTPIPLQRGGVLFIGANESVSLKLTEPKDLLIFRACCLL
Microphthalmia-associated transcription factor, sequence (O75030 whole entry): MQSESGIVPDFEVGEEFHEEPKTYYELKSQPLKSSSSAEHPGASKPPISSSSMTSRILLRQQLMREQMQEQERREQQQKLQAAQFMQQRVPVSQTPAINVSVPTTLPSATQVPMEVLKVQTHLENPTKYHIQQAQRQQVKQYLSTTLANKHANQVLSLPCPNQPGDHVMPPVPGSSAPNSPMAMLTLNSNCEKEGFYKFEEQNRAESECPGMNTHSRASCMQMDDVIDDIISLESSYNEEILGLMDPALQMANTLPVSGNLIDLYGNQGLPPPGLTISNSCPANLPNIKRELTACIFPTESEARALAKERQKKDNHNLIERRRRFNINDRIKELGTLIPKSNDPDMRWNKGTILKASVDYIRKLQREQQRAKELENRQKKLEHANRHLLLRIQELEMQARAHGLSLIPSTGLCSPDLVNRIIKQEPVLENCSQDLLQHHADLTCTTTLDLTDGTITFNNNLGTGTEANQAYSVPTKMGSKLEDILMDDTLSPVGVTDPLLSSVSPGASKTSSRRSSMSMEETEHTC

SMILES: O=C(Nc1ccccc1Cc1ccccc1)c1ccccc1NS(=O)(=O)c1ccc(Cl)s1
- EC50 (Streptococcus): 4.09 µM (active)
- EC50 (Ion channel NompC): > 29.9 µM (inactive)
- EC50 (Mucolipin-3): 24.3 µM (not active)
- AC50 [1]: 8.18 µM (active)
- EC50 [2]: 0.659 µM (active)
- IC50 [3]: 2.17 µM (active)
- AC50 [4]: 14.7 µM (active)
- AC50 [5]: 0.706 µM (active)
- AC50 [6]: 18.2 µM (active)
- EC50 (Streptokinase A): > 150 µM (not active)

SMILES: c1ccc2[nH]c(-c3ccnc4ccccc34)nc2c1
- IC50 [7]: > 64 µM (inactive)
- IC50 [8]: 3.66 µM (active)

SMILES: COc1ccccc1NC(=O)COc1ccc(C(=O)NCc2ccccc2)cc1OC
- IC50 [9]: > 20 µM (inactive)
- IC50 [10]: 13 µM (active)
- IC50 (Bcl-2-related protein A1): > 20 µM (inactive)

SMILES: COC(=O)C(N)Cc1ccc(O)c(O)c1 (stereo not drawn)
- IC50 [11]: > 100 µM (inactive)
- IC50 [12]: 8.43 µM (active)
- IC50 [13]: > 50 µM (not active)

SMILES: COc1cc(OC)c(-n2c(C)cc(C=O)c2C)cc1Cl
- IC50 [14]: 4.72 µM (active)

SMILES: CCCCOn1c(C)c(C(=O)OCC)c2c3nonc3ccc21
- EC50 (Caspase-3): > 85.3 µM (inactive)
- EC50 (Caspase-7): > 85.3 µM (inactive)

SMILES: COc1ccc(CCNC(=O)CCNC(=O)c2ccc(Br)cc2)cc1OC
- IC50 [7]: > 64 µM (inactive)

SMILES: Cc1ccc(-c2nnc(SCC(=O)c3ccc(O)c(O)c3)n2-c2ccc(C)cc2)cc1
- IC50 [11]: > 100 µM (inactive)
- IC50 [12]: 9.54 µM (active)

SMILES: COc1cc(C(=O)Oc2ccccc2/C=N/NC(=O)c2ccc(Cl)cc2)cc(OC)c1OC
- EC50 (Troponin, cardiac muscle): > 71.5 µM (inactive)
- IC50 [15]: 2.12 µM (active)
- EC50 (cells [16]): 9.29 µM (active)
- IC50 [17]: 1.99 µM (active)
- EC50 (cells [18]): > 350 µM (not active)
- EC50 [19]: 1.31 µM (active)

SMILES: CCN(CC)c1ccc(/C=N/NC(=S)NCc2ccco2)cc1
- EC50 (Caspase-3): > 85.3 µM (inactive)
- EC50 (Caspase-7): > 85.3 µM (inactive)

SMILES: Cc1ccc(C(=O)N/N=C\c2ccc([N+](=O)[O-])s2)cn1
- IC50 (cells [20]): 4.87 µM (active)
- CC50 [21]: 13.1 µM (active)
- AC50 [22]: 2.95 µM (active)
- CC50 [23]: 26.2 µM (active)

SMILES: N#C/C(=C\c1ccccn1)c1nc2ccccc2s1
- EC50 (Ion channel NompC): 0.672 µM (active)
- EC50 (Mucolipin-3): > 1.11 µM (not active)
